Reference: ChEMBL document CHEMBL1138244, “Three-dimensional quantitative structure-activity relationships and activity predictions of human TRPV1 channel antagonists: comparative molecular field analysis and comparative molecular similarity index analysis of cinnamides” (J Med Chem, 2007)

Assay: Inhibition of rat human chimera TRPV1 channel expressed in CHO cells
Type: cell-based

IC50	pIC50	Structure (SMILES)
102 nM	–	CC(C)(C)c1ccc(/C=C/C(=O)Nc2ccc3c(c2)CCCC3)cc1
1 nM	8.94	O=C(/C=C/c1ccc(C(F)(F)F)nc1N1CCCCC1)Nc1ccc2cccnc2c1
583 nM	6.23	O=C(/C=C/c1ccc([N+](=O)[O-])cc1)Nc1ccc2c(c1)OCCO2
2 nM	8.78	O=C(/C=C/c1ccc(C(F)(F)F)nc1N1CCOCC1)Nc1ccc2cccnc2c1
> 40000 nM	4.4	O=C(/C=C/c1ccc(O)cc1)Nc1ccc2c(c1)OCCO2
312 nM	6.51	CCCCc1ccc(/C=C/C(=O)Nc2ccc3c(c2)OCCO3)cc1
2510 nM	5.6	CC(C)(C)c1ccc(C(=CC(=O)Nc2ccc3c(c2)OCCO3)c2ccc(C(C)(C)C)cc2)cc1
391 nM	–	CC(C)(C)c1ccc(/C=C/C(=O)Nc2ccc3c(c2)OCC(=O)N3)cc1
119 nM	6.92	CC(C)(C)c1ccc(/C(=C/C(=O)Nc2ccc3c(c2)OCCO3)c2ccncc2)cc1
1010 nM	5.99	CC(C)Cc1ccc(/C=C/C(=O)Nc2ccc3c(c2)OCCO3)cc1
1110 nM	5.95	Cc1nc(C(F)(F)F)ccc1/C=C/C(=O)Nc1ccc2c(c1)OCCO2
293 nM	6.53	Cc1ccc(/C=C/C(=O)Nc2ccc3c(c2)OCCO3)cc1
247 nM	6.61	CCc1ccc(/C=C/C(=O)Nc2ccc3c(c2)OCCO3)cc1
216 nM	6.67	O=C(/C=C/c1ccc(Cl)cc1)Nc1ccc2c(c1)OCCO2
226 nM	6.65	CC(C)(C)c1ccc(CCC(=O)Nc2ccc3c(c2)OCCO3)cc1
41 nM	7.38	CC(C)C/C(=C\C(=O)Nc1ccc2c(c1)OCCO2)c1ccc(C(C)(C)C)cc1
1470 nM	5.83	O=C(/C=C/c1ccc(F)cc1)Nc1ccc2c(c1)OCCO2
339 nM	6.47	O=C(/C=C/c1ccc(Br)cc1)Nc1ccc2c(c1)OCCO2
868 nM	6.06	CC(C)(C)c1ccc(/C=C/C(=O)Oc2ccc3c(c2)OCCO3)cc1
548 nM	6.26	CC(C)(C)c1cccc(/C=C/C(=O)Nc2ccc3c(c2)OCCO3)c1
5100 nM	5.29	O=C(/C=C/c1ccccc1)Nc1ccc2c(c1)OCCO2
48 nM	7.32	CC(C)(C)c1ccc(/C(=C/C(=O)Nc2ccc3c(c2)OCCO3)c2ccccc2)cc1

IC50	pIC50	Structure (SMILES)
501 nM	6.3	CC/C(=C\c1ccc(C(C)(C)C)cc1)C(=O)Nc1ccc2c(c1)OCCO2
1060 nM	5.97	CC(C)(C)c1ccc(/C=C/C(=O)Nc2ccc3c(c2)OCCO3)nc1
859 nM	6.07	COc1ccccc1NC(=O)/C=C/c1ccc(C(C)(C)C)cc1
144 nM	6.84	CC(C)(C)c1ccc(/C(=C/C(=O)Nc2ccc3c(c2)OCCO3)c2cccnc2)cc1
1070 nM	5.97	O=C(/C=C/c1ccc(C(F)(F)F)nc1)Nc1ccc2c(c1)OCCO2
57 nM	7.24	COc1cccc(NC(=O)/C=C/c2ccc(C(C)(C)C)cc2)c1
3 nM	–	CC(C)(C)c1ccc(/C=C/C(=O)Nc2ccc3cccnc3c2)cc1
166 nM	6.78	COc1ccc(NC(=O)/C=C/c2ccc(C(C)(C)C)cc2)cc1
1870 nM	5.73	COc1ccc(/C=C/C(=O)Nc2ccc3c(c2)OCCO3)cc1
55 nM	–	CC(C)(C)c1ccc(/C=C/C(=O)Nc2ccc3c(c2)NCCC3)cc1
157 nM	6.8	CC(C)(C)c1ccc(/C=C/C(=O)Nc2ccc3c(c2)OCCO3)c(Br)c1
21 nM	7.69	CC(C)(C)c1ccc(/C(=C/C(=O)Nc2ccc3c(c2)OCCO3)Cc2ccccc2)cc1
230 nM	6.64	COc1ccc(NC(=O)/C=C/c2ccc(C(C)(C)C)cc2)cc1OC
26 nM	7.58	CCOC(=O)c1cc(C(C)(C)C)ccc1/C=C/C(=O)Nc1ccc2c(c1)OCCO2
254 nM	6.59	CC(C)(C)c1ccc(/C=C/C(=O)Nc2ccc3c(c2)O[C@@H](CO)CO3)cc1
216 nM	6.66	CC(C)(C)c1ccc(/C=C/C(=O)Nc2ccc3c(c2)O[C@H](CO)CO3)cc1
155 nM	6.81	COc1cccc(/C(=C/C(=O)Nc2ccc3c(c2)OCCO3)c2ccc(C(C)(C)C)cc2)c1
1900 nM	5.72	CC(C)(C)c1ccc(/C=C\C(=O)Nc2ccc3c(c2)OCCO3)cc1
1320 nM	5.88	CN(C)c1ccc(/C=C/C(=O)Nc2ccc3c(c2)OCCO3)cc1
404 nM	6.39	O=C(/C=C/c1cccc(Br)c1)Nc1ccc2c(c1)OCCO2
1310 nM	5.88	O=C(/C=C/c1ccc(F)c(F)c1)Nc1ccc2c(c1)OCCO2
343 nM	6.46	CC(C)(C)c1ccc(/C(I)=C/C(=O)Nc2ccc3c(c2)OCCO3)cc1

IC50	pIC50	Structure (SMILES)
993 nM	6	O=C(/C=C/c1ccc(Cl)cc1)Nc1cccc(Cl)c1
24 nM	7.62	CC(C)(C)c1ccc(/C=C/C(=O)Nc2ccc3c(c2)OC[C@H](CO)O3)cc1
451 nM	6.35	O=C(/C=C/c1ccc(C(F)(F)F)cc1C(F)(F)F)Nc1ccc2c(c1)OCCO2
1020 nM	5.99	COC[C@@H]1COc2cc(NC(=O)/C=C/c3ccc(C(C)(C)C)cc3)ccc2O1
690 nM	6.16	CC(C)(C)c1ccc(/C=C/C(=O)Nc2ccc3c(c2)OC[C@@H](CNCO)O3)cc1
120 nM	6.92	CCC/C(=C\C(=O)Nc1ccc2c(c1)OCCO2)c1ccc(C(C)(C)C)cc1
18 nM	–	CC(C)(C)c1ccc(/C=C/C(=O)Nc2ccc3oc(=O)cnc3c2)cc1
19 nM	–	CC(C)(C)c1ccc(/C=C/C(=O)Nc2ccc3cc[nH]c3c2)cc1
859 nM	6.07	CC(C)(C)c1ccc(/C=C/C(=O)Nc2cccc(OCCO)c2)cc1
4 nM	–	CC(C)(C)c1ccc(/C=C/C(=O)Nc2ccc3ccc(=O)[nH]c3c2)cc1
153 nM	6.82	COc1ccccc1/C(=C/C(=O)Nc1ccc2c(c1)OCCO2)c1ccc(C(C)(C)C)cc1
46 nM	7.34	COc1ccc(/C(=C/C(=O)Nc2ccc3c(c2)OCCO3)c2ccc(C(C)(C)C)cc2)cc1
329 nM	6.48	CC(C)(C)c1ccc(/C=C/C(=O)Nc2ccc3c(c2)OC[C@@H](COCC2CC2)O3)cc1
392 nM	6.41	CC(C)(C)c1ccc(/C=C/C(=S)Nc2ccc3c(c2)OCCO3)cc1
6 nM	8.21	CC(C)(C)c1ccc(/C=C/C(=O)Nc2ccc3c(c2)OCCO3)c(C2CCCC2)c1
545 nM	6.26	CCC(C)/C(=C\c1ccc(C(C)(C)C)cc1)C(=O)Nc1ccc2c(c1)OCCO2 (stereo unspecified)
> 40000 nM	4.4	COc1cc(/C=C/C(=O)Nc2ccc3c(c2)OCCO3)cc(OC)c1OC
19400 nM	4.71	CN(C(=O)/C=C/c1ccc(C(C)(C)C)cc1)c1ccc2c(c1)OCCO2
331 nM	6.48	CC(C)(C)c1ccc(/C(=C\C(=O)Nc2ccc3c(c2)OCCO3)c2cccc(N)c2)cc1
> 40000 nM	4.4	CC(C)(C)c1ccc(/C=C/CNc2ccc3c(c2)OCCO3)cc1
82 nM	7.09	C/C(=C\C(=O)Nc1ccc2c(c1)OCCO2)c1ccc(C(C)(C)C)cc1
173 nM	–	CC(C)(C)c1ccc(/C=C/C(=O)Nc2ccc3c(c2)NCCO3)cc1

IC50	pIC50	Structure (SMILES)
183 nM	6.74	CC(C)(C)c1ccc(/C=C/C(=O)Nc2ccc3c(c2)OCCO3)cn1
> 40000 nM	4.4	O=C(/C=C/c1ccc(-c2ccccc2)cc1)Nc1ccc2c(c1)OCCO2
120 nM	6.92	O=C(/C=C/c1ccc(C(F)(F)F)cc1)Nc1ccc2c(c1)OCCO2
26 nM	–	CC(C)(C)c1ccc(/C=C/C(=O)Nc2ccc3c(c2)OCCN3)cc1
47 nM	7.33	CC(C)(C)c1ccc(/C(=C/C(=O)Nc2ccc3c(c2)OCCO3)c2ccc(C(F)(F)F)cc2)cc1
10700 nM	4.97	CC(C)(C)c1ccc(/C=C(/C(=O)Nc2ccc3c(c2)OCCO3)c2ccccc2)cc1
164 nM	6.78	C/C(=C\c1ccc(C(C)(C)C)cc1)C(=O)Nc1ccc2c(c1)OCCO2
56 nM	7.25	CCOC(=O)CC/C(=C\C(=O)Nc1ccc2c(c1)OCCO2)c1ccc(C(C)(C)C)cc1
33 nM	7.48	CC(C)(C)c1ccc(/C=C/C(=O)Nc2cccc(C(N)=O)c2)cc1
449 nM	6.35	O=C(/C=C/c1ccc(Cl)c(Cl)c1)Nc1ccc2c(c1)OCCO2
453 nM	6.34	O=C(/C=C/c1ccc(C(F)(F)F)cc1Br)Nc1ccc2c(c1)OCCO2
15400 nM	4.81	CC(C)(C)c1ccc(/C=C(/C(=O)Nc2ccc3c(c2)OCCO3)C2CCCC2)cc1
279 nM	6.55	Cc1ccccc1/C(=C/C(=O)Nc1ccc2c(c1)OCCO2)c1ccc(C(C)(C)C)cc1
582 nM	6.23	CC(C)(C)c1ccc(C(=O)CC(=O)Nc2ccc3c(c2)OCCO3)cc1
665 nM	6.18	CN(C)C[C@@H]1COc2cc(NC(=O)/C=C/c3ccc(C(C)(C)C)cc3)ccc2O1
269 nM	6.57	CC(C)(C)c1ccc(/C=C/C(=O)Nc2ccccc2)cc1
98 nM	7.01	CC(C)c1ccc(/C=C/C(=O)Nc2ccc3c(c2)OCCO3)cc1
1270 nM	5.9	CC(C)(C)c1ccc(/C=C/C(=O)Nc2ccc3c(c2)OC[C@@H](CN)O3)cc1
550 nM	6.26	CC(C)(C)c1ccc(/C=C/C(=O)Nc2ccc3c(c2)OCCO3)cc1.Cl
